Source: ChEMBL document CHEMBL4825666, “Antitrypanosomal Lactones from Nectandra barbellata” (J Nat Prod, 2021)
Calls of active or inactive are those of the source. The calls are words filed in the database; no cut-off is given here.

Experiments:
Trypanosoma cruzi [1] = test: Antitrypanosomal activity against trypomastigote forms of Trypanosoma cruzi Y infected in LLC-MK2 cells assessed as parasite growth inhibition by resazurin assay; assay type: functional, organism-based
[2] = Selectivity index, ratio of CC50 for cytotoxicity against mouse NCTC clone 929 cells to IC50 for trypomastigote forms of Trypanosoma cruzi Y infected in LLC-MK2 cells; assay type: toxicity, cell-based; conditions: read-out: Ratio CC50/IC50
[3] = Cytotoxicity against mouse NCTC clone 929 cells assessed as reduction in cell viability after 48 hrs by MTT assay; assay type: cell-based
Trypanosoma cruzi [4] = test: Induction of ROS generation in trypomastigote forms of Trypanosoma cruzi Y assessed as effect on reactive oxygen species level at IC50 for 2 hrs by fluorimetric microplate reader method; assay type: functional, organism-based
Cytochrome P450 2C9 = Cytochrome P450 2C9 (Homo sapiens, UniProt P11712); test: Inhibition of CYP2C9 (unknown origin); assay type: ADME
Cytochrome P450 2D6 = Cytochrome P450 2D6 (Homo sapiens, UniProt P10635); test: Inhibition of CYP2D6 (unknown origin); assay type: ADME
Trypanosoma cruzi [5] = test: Induction of acidocalcisome alkalinization in trypomastigotes form of Trypanosoma cruzi Y assessed as upregulation of Ca2+ level at IC50 using acridine orange measured after 60 min by fluorescent based assay
Cytochrome P450 2C19 = Cytochrome P450 2C19 (Homo sapiens, UniProt P33261); test: Inhibition of CYP2C19 (unknown origin); assay type: ADME
Cytochrome P450 1A2 = biological target: T1, Cytochrome P450 1A2 (Homo sapiens, UniProt P05177); test: Inhibition of CYP1A2 (unknown origin); assay type: ADME
T1 sequence (P05177 whole entry): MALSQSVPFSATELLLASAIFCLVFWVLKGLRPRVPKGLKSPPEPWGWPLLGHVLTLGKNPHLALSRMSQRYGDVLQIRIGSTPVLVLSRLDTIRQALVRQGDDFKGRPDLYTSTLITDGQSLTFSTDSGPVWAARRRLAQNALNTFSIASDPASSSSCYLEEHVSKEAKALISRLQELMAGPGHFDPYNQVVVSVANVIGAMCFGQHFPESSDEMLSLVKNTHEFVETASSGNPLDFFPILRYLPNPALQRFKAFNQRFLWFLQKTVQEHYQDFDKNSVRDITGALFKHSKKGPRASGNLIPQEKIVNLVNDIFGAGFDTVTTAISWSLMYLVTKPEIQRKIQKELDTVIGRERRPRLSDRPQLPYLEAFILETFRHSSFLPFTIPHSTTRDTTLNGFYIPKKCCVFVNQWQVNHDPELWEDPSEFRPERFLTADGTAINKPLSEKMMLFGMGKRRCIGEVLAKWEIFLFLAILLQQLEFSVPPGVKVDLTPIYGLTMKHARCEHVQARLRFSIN

Trypanosoma cruzi [6] = test: Induction of mitochondrial membrane depolarization in trypomastigote forms of Trypanosoma cruzi Y at IC50 measured after 2 hrs by JC-1 staining based flow cytometry; assay type: functional, organism-based
Cytochrome P450 3A4 = Cytochrome P450 3A4 (Homo sapiens, UniProt P08684); test: Inhibition of CYP3A4 (unknown origin); assay type: ADME
Cell membrane [7] = test: Induction of cell membrane permeability in trypomastigote forms of Trypanosoma Cruzi Y at IC50 measured after 120 mins by SYSTOX Green assay; assay type: subcellular
Cell membrane [8] = test: Induction of plasma membrane depolarization in trypomastigote forms of Trypanosoma cruzi Y at IC50 measured after 2 hrs by DiSBAC2(3)-probe based assay
Trypanosoma cruzi [9] = test: Antitrypanosomal activity against Trypanosoma cruzi Y assessed as increase in calcium level at IC50 measured upto 160 min by Fluo-4 AM probe-based spectrofluorimetric method; assay type: functional, organism-based; conditions: time min <=160
Cell membrane [10] = test: Induction of cell membrane permeability in trypomastigote forms of Trypanosoma Cruzi Y at IC50 measured after 80 mins by SYSTOX Green assay; assay type: subcellular
Trypanosoma cruzi [11] = test: Antitrypanosomal activity against trypomastigote forms of Trypanosoma cruzi Y assessed as increase in ATP levels at IC50 incubated for 1 hrs by microplate reader method; assay type: functional, organism-based
Trypanosoma cruzi [12] = test: Antitrypanosomal activity against trypomastigote forms of Trypanosoma cruzi Y assessed as increase in ATP levels at IC50 incubated for 2 hrs by microplate reader method; assay type: functional, organism-based

Cytochrome P450 2C19, sequence (P33261 whole entry): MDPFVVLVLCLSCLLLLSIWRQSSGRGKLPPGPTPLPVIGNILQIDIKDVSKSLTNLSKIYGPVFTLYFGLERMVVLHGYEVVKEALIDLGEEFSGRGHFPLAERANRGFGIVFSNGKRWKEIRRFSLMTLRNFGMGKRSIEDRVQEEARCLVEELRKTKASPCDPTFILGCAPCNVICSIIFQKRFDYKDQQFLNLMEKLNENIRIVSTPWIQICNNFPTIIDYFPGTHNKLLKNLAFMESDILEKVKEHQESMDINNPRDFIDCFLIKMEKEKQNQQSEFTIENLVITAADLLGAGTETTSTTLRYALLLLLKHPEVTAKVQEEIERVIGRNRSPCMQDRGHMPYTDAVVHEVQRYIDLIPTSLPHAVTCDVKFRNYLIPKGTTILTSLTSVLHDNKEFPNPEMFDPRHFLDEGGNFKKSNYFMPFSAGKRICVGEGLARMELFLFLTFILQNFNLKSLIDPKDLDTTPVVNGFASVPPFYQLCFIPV
Cytochrome P450 2D6, sequence (P10635 whole entry): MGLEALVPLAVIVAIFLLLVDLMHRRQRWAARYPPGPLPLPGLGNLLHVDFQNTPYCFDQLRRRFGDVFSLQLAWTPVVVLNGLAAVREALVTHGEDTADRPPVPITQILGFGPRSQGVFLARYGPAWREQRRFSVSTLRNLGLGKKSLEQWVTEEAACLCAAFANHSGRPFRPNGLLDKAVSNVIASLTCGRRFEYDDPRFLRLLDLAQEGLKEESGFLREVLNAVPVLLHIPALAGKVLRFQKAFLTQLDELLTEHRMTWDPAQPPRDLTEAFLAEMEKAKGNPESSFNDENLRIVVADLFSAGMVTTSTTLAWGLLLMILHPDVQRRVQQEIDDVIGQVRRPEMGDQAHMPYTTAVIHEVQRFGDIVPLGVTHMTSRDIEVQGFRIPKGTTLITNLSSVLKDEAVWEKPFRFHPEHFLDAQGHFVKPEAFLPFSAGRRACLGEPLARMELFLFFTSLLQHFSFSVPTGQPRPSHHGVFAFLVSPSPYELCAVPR
Cytochrome P450 3A4, sequence (P08684 whole entry): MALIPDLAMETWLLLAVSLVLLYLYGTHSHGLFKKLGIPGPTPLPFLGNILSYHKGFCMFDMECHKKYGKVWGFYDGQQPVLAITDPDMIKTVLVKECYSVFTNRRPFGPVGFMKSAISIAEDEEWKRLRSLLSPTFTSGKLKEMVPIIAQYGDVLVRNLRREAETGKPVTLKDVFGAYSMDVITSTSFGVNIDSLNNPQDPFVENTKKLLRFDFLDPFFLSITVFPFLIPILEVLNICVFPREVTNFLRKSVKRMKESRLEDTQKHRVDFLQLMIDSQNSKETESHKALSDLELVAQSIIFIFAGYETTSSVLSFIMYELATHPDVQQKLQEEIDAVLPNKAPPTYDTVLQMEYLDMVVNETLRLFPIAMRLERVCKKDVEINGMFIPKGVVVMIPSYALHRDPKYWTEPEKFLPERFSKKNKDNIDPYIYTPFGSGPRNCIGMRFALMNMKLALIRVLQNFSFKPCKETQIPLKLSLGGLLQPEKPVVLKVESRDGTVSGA
Cytochrome P450 2C9, sequence (P11712 whole entry): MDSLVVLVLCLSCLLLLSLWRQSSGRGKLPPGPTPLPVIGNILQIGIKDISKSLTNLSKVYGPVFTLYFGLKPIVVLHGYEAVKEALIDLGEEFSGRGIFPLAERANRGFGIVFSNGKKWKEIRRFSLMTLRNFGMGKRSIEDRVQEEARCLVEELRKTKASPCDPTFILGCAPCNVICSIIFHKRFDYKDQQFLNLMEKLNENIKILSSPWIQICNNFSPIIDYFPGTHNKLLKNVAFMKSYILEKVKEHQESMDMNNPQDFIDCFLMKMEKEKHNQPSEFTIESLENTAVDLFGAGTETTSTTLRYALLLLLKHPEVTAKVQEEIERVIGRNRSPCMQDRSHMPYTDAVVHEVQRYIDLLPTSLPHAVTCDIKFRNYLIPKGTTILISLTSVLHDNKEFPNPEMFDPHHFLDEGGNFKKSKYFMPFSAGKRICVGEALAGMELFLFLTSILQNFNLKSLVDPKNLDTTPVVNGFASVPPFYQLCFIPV

SMILES	IC50 (Trypanosoma cruzi [1]) [µM]	selectivity ratio [2]	CC50 at 48 h [3] [µM]	Activity (Trypanosoma cruzi [4])	inhibition (INH) (Cytochrome P450 2C9)	inhibition (INH) (Cytochrome P450 2D6)	Activity (Trypanosoma cruzi [5])	inhibition (INH) (Cytochrome P450 2C19)	inhibition (INH) (Cytochrome P450 1A2)	Activity (Trypanosoma cruzi [6])	inhibition (INH) (Cytochrome P450 3A4)	Activity (Cell membrane [7])	Activity (Cell membrane [8])	Activity (Trypanosoma cruzi [9])	Activity (Cell membrane [10])	Activity (Trypanosoma cruzi [11])	Activity (Trypanosoma cruzi [12])
O=C(Cn1ccnc1[N+](=O)[O-])NCc1ccccc1 [BENZNIDAZOLE]	16.4	> 12.2	> 200														
C=CCCCCCCCCCCCCC/C=C1/C[C@H](CO)OC1=O	13.1	> 15.3	> 200	inactive	Active	Active	Active	Active	Active	Active	Active	inactive	Active	Active	Active	Active	
CCCCCCCCCCCCCCCCCCCCC/C=C1/C[C@H](CO)OC1=O	2.1	> 95.2	> 200	inactive	Not Active	Not Active	Active	Not Active	Not Active	Active	Not Active	inactive	Active	Active	Active	inactive	inactive
CCCCCCCCCCCCCCC/C=C1/C[C@H](CO)OC1=O	4	17.8	71.2		Active	Active		Active	Active		Active		Active				
